This passage reports IC50 results from patent US20260234130A1, “EP2 Antagonist Compounds” (Reservoir Neuroscience, Inc., priority 2022, published 2026).

The target in one test is T1, EP2 receptor (Homo sapiens, UniProt P43116).
T1 construct: expressed in transfected cells; host or cells: CHO-K1 cells (ATCC), transient transfection with FuGENE 6
T1 sequence (P43116 whole entry): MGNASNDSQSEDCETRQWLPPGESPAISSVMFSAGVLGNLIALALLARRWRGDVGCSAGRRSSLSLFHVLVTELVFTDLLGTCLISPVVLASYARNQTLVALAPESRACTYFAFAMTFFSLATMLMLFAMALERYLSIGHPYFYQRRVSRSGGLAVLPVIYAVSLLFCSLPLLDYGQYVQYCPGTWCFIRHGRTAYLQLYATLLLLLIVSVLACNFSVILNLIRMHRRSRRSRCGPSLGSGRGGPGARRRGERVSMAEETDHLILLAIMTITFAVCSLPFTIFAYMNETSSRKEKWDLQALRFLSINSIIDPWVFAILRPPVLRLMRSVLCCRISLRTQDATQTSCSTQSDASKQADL
The experiment in a line: EP2 potency assay (cAMP TR-FRET, LANCE Ultra cAMP kit) in transfected CHO-K1 cells stimulated with PGE2 at EC80. Type of test: cell-based. Conditions: Table (IV), EP2 antagonism, CHO-K1 cells expressing EP2, PGE2 at EC80. As for the experimental part:
Compound potency was measured using a cAMP TR-FRET assay. CHO-K1 cells (ATCC) were seeded at a density of 9.75×105 in 6 cm plates, and then on the following day cell media was changed to Opti-Mem I reduced serum media (Gibco), and transfected with a plasmid for expression of the EP2 receptor (the target receptor of interest), using the FuGENE 6 Transfection reagent (Promega). After 6 hours incubation, the cell media was replaced with F12 medium supplemented with 10% FBS and 100 U/ml Pen-Strep. 24 hours after transfection, cells were harvested and seeded at a density of 3000 cells/well in a 384 well plate to perform the cAMP assay, using the LANCE Ultra cAMP assay kit (PerkinElmer). For each test compound of interest, 10 nl/well of serially diluted test compound was added to each well, resulting in a range of 10 serially diluted compound concentrations from 10000 nM to 0.038 nM, with duplicate wells for each concentration. Plates were then centrifuged at 1000 rpm for 1 min, agitated at 600 rpm at R.T. for 2 min, and incubated at 25° C. for 5 min. The reference agonist, prostaglandin E2 (MCE), was added to each well at the appropriate concentration to reach its EC80 value. Plates were then centrifuged at 1000 rpm for 1 min, agitated at 600 rpm at R.T. for 2 min, and incubated at 25° C. for 30 min. To measure levels of cAMP, 5 μl/well of Eu-cAMP working solution and 5 μl/well of Ulight-anti-cAMP working solution were added to each well, and the plate was centrifuged at 1000 rpm for 1 min, agitated at 600 rpm at R.T. for 2 min, and incubated at 25° C. for 15 min. Levels of TR-FRET fluorescence were measured in each well using an EnVision microplate reader (excitation wavelength=337 nm and emission wavelength=615 and 665 nm). A dose-response curve was prepared by plotting percent inhibition for each compound concentration, and then IC50 was calculated by fitting a curve to the plotted values and extrapolating the IC50 concentration. […] Potency data is grouped into categories of AA (IC50<100 nM); A (IC50=100 to 500 nM); B (IC50=500 nM to […]); C (IC50=1 μM to 5 μM); and D (IC50>5 μM).
As a reminder, the IC50 is the concentration at which inhibition is half-maximal. As for `COc1ccc(C(N2CCC(COc3ccc(-c4ccc(C#N)cc4)cc3)(C(=O)O)C2)C(F)(F)F)cc1` (stereo not shown) [I-2, 3-(((4′-cyano-[1,1′-biphenyl]-4-yl)oxy)methyl)-1-(2,2,2-trifluoro-1-(4-methoxyphenyl)ethyl)pyrrolidine-3-carboxylic acid], the IC50 is > 5 µM.

For the compound `COc1ccc(C(=O)N2CCC(COc3ccc(C45CC(C#N)(C4)C5)cc3)(C(=O)O)C2)cc1` (stereo not shown) [I-6, 3-((4-(3-cyanobicyclo[1.1.1]pentan-1-yl)phenoxy)methyl)-1-(4-methoxybenzoyl)pyrrolidine-3-carboxylic acid], the 50% inhibitory concentration (IC50) is < 0.1 µM.

Consider `COc1ccc(C(=O)N2CCC(COc3ccc(C45CC(C4)C5)cc3)(C(=O)O)C2)cc1` (stereo not shown) [I-7, 3-((4-(bicyclo[1.1.1]pentan-1-yl)phenoxy)methyl)-1-(4-methoxybenzoyl)pyrrolidine-3-carboxylic acid], for which the IC50 is 0.1 to 0.5 µM.

In turn, `COc1ccc(C(=O)N2CCC(COc3ccc(C45CC(C(N)=O)(C4)C5)cc3)(C(=O)O)C2)cc1` (stereo not shown) [I-8, 3-(4-{3-carbamoylbicyclo[1.1.1]pentan-1-yl}phenoxymethyl)-1-(4-methoxybenzoyl)pyrrolidine-3-carboxylic acid] had an IC50 of 0.1 to 0.5 µM.

Turning to `COc1ccc(C(=O)N2CCC(COc3ccc(-c4ccc(C#N)cc4)cc3)(S(C)(=N)=O)C2)cc1` (stereo not shown) [I-9, 4′-((1-(4-methoxybenzoyl)-3-(S-methylsulfonimidoyl)pyrrolidin-3-yl)methoxy)-[1,1′-biphenyl]-4-carbonitrile], the half-inhibitory concentration (IC50) was > 5 µM.

In the case of `COc1ccc(C(=O)N2CCC(COc3ccc(-c4ccc(C#N)cc4)cc3)(S(=O)(=O)NS(C)(=O)=O)C2)cc1` (stereo not shown) [I-10, 3-(((4′-cyano-[1,1′-biphenyl]-4-yl)oxy)methyl)-1-(4-methoxybenzoyl)-N-(methylsulfonyl)pyrrolidine-3-sulfonamide], the half-maximal inhibitory concentration (IC50) was > 5 µM.

Take `COc1ccc(C(=O)N2CCC(COc3ccc(C45CC(C(=O)O)(C4)C5)cc3)(C(=O)O)C2)cc1` (stereo not shown) [I-11, 3-((4-(3-carboxybicyclo[1.1.1]pentan-1-yl)phenoxy)methyl)-1-(4-methoxybenzoyl)pyrrolidine-3-carboxylic acid]: the IC50 was > 5 µM.

As for `COc1ccc(C(=O)N2CCC(COc3ccc(-c4ccc(C#N)cc4)cc3)(C(O)C(F)(F)F)C2)cc1` (stereo not shown) [I-12, 4′-((1-(4-methoxybenzoyl)-3-(2,2,2-trifluoro-1-hydroxyethyl)pyrrolidin-3-yl)methoxy)-[1,1′-biphenyl]-4-carbonitrile], the half-inhibitory concentration (IC50) was > 5 µM.

`COc1ccc(C(=O)N2CCC(COc3ccc(-c4ccc(C#N)cc4)cc3)(C(O)(O)C(F)(F)F)C2)cc1` (stereo not shown) [I-13, 4′-((1-(4-methoxybenzoyl)-3-(2,2,2-trifluoro-1,1-dihydroxyethyl)pyrrolidin-3-yl)methoxy)-[1,1′-biphenyl]-4-carbonitrile]: the IC50 was > 5 µM.

For `COc1ccc(C(=O)N2CCC(COc3ccc(Br)cc3)(C(O)C(F)(F)F)C2)cc1` (stereo not shown) [I-14, (3-((4-bromophenoxy)methyl)-3-(2,2,2-trifluoro-1-hydroxyethyl)pyrrolidin-1-yl)(4-methoxyphenyl)methanone], the IC50 was > 5 µM.

Staying with this test, now noted: Table (V), EP2 antagonism, CHO-K1 cells expressing EP2, PGE2 at EC80.
Turning to `Fc1ccc2c(ccn2-c2cc(Cl)c3c(c2)CN(Cc2cnc(OCC(F)(F)F)nc2)CCO3)c1` [II-1, 9-chloro-7-(5-fluoro-1H-indol-1-yl)-4-((2-(2,2,2-trifluoroethoxy)pyrimidin-5-yl)methyl)-2,3,4,5-tetrahydrobenzo [f][1,4]oxazepine], the 50% inhibitory concentration (IC50) was > 5 µM.

As to `Cn1cc(-c2ncc(CN3CCOc4c(Cl)cc(-n5ccc6cc(F)ccc65)cc4C3)cn2)cn1` [II-2, 9-chloro-7-(5-fluoro-1H-indol-1-yl)-4-((2-(1-methyl-1H-pyrazol-4-yl)pyrimidin-5-yl)methyl)-2,3,4,5-tetrahydrobenzo[f][1,4] oxazepine], the IC50 is 1 to 5 µM.

For `COc1ncc(CN2CCOc3c(Cl)cc(N4CCN(C)c5cc(F)ccc54)cc3C2)cn1` [II-3, 9-chloro-7-(6-fluoro-4-methyl-3,4-dihydroquinoxalin-1(2H)-yl)-4-((2-methoxypyrimidin-5-yl)methyl)-2,3,4,5-tetrahydrobenzo[f][1,4] oxazepine], the IC50 is > 5 µM.

Compound `O=c1ncc(CN2CCOc3c(Cl)cc(-n4ccc5cc(F)c(F)cc54)cc3C2)c[nH]1` [II-4, 5-((9-chloro-7-(5,6-difluoro-1H-indol-1-yl)-2,3-dihydrobenzo[f][1,4]oxazepin-4(5H)-yl)methyl)pyrimidin-2(1H)-one] gave a half-inhibitory concentration (IC50) of 1 to 5 µM.

As to `Cc1ncc(CN2CCOc3c(Cl)cc(-n4ccc5cc(F)ccc54)cc3C2)cn1` [II-5, 9-chloro-7-(5-fluoro-1H-indol-1-yl)-4-((2-methylpyrimidin-5-yl)methyl)-2,3,4,5-tetrahydrobenzo[f][1,4] oxazepine], the IC50 is 0.1 to 0.5 µM.

For `N#Cc1ncc(CN2CCOc3c(Cl)cc(-n4ccc5cc(F)ccc54)cc3C2)cn1` [II-6, 5-((9-chloro-7-(5-fluoro-1H-indol-1-yl)-2,3-dihydrobenzo[f][1,4]oxazepin-4(5H)-yl)methyl)pyrimidine-2-carbonitrile], the 50% inhibitory concentration (IC50) is 0.5 to 1 µM.

The compound `Fc1ccc2c(ccn2-c2cc(Cl)c3c(c2)CN(Cc2cnc(-n4cccn4)nc2)CCO3)c1` [II-7, 4-((2-(1H-pyrazol-1-yl)pyrimidin-5-yl)methyl)-9-chloro-7-(5-fluoro-1H-indol-1-yl)-2,3,4,5-tetrahydrobenzo[f][1,4] oxazepine] gave an IC50 of 1 to 5 µM.

`Fc1ccc2c(ccn2-c2cc(Cl)c3c(c2)CN(Cc2cnc(C(F)(F)F)nc2)CCO3)c1` [II-8, 9-chloro-7-(5-fluoro-1H-indol-1-yl)-4-((2-(trifluoromethyl)pyrimidin-5-yl)methyl)-2,3,4,5-tetrahydrobenzo[f][1,4] oxazepine] returned an IC50 of 1 to 5 µM.

For `Fc1ccc2c(ccn2-c2cc(Cl)c3c(c2)CN(Cc2cncnc2)CCO3)c1` [II-9, 9-chloro-7-(5-fluoro-1H-indol-1-yl)-4-(pyrimidin-5-ylmethyl)-2,3,4,5-tetrahydrobenzo[f][1,4] oxazepine], the 50% inhibitory concentration (IC50) lay in the range of 0.1 to 0.5 µM.

`COc1ncc(CN2CCOc3c(Cl)cc(-n4ccc5cc(C6CC6)ccc54)cc3C2)cn1` [II-10, 9-chloro-7-(5-cyclopropyl-1H-indol-1-yl)-4-((2-methoxypyrimidin-5-yl)methyl)-2,3,4,5-tetrahydrobenzo[f][1,4] oxazepine]: the IC50 was > 5 µM.

Compound `Nc1ncc(CN2CCOc3c(Cl)cc(-n4ccc5cc(F)ccc54)cc3C2)c(N)n1` [II-11, 5-((9-chloro-7-(5-fluoro-1H-indol-1-yl)-2,3-dihydrobenzo[f][1,4]oxazepin-4(5H)-yl)methyl)pyrimidin-2,4-diamine] displayed an IC50 of 0.1 to 0.5 µM.

For the compound `CS(=O)(=O)Nc1ncc(CN2CCOc3c(Cl)cc(-n4ccc5cc(F)ccc54)cc3C2)cn1` [II-13], the half-maximal inhibitory concentration (IC50) lay within 1 to 5 µM.

The compound `CC(=O)Nc1ncc(CN2CCOc3c(Cl)cc(-n4ccc5cc(F)ccc54)cc3C2)cn1` [II-14, N-(5-((9-chloro-7-(5-fluoro-1H-indol-1-yl)-2,3-dihydrobenzo[f][1,4]oxazepin-4(5H)-yl)methyl)pyrimidin-2-yl)acetamide] gave a 50% inhibitory concentration (IC50) of 1 to 5 µM.

Take `O=C(O)c1ccc(CN2CCOc3c(Cl)cc(-n4ccc5cc(F)ccc54)cc3C2)cn1` [II-15, 5-((9-chloro-7-(5-fluoro-1H-indol-1-yl)-2,3-dihydrobenzo[f][1,4]oxazepin-4(5H)-yl)methyl)picolinic acid]: the 50% inhibitory concentration (IC50) is < 0.1 µM.

Turning to `Nc1ncc(CN2CCOc3c(Cl)cc(-n4ccc5cc(F)ccc54)cc3C2)c(=O)[nH]1` [II-16, 2-amino-5-((9-chloro-7-(5-fluoro-1H-indol-1-yl)-2,3-dihydrobenzo[f][1,4]oxazepin-4(5H)-yl)methyl)pyrimidin-4(3H)-one], the IC50 is > 5 µM.

On to `N#CCc1ncc(CN2CCOc3c(Cl)cc(-n4ccc5cc(F)ccc54)cc3C2)cn1` [II-17, 2-(5-((9-chloro-7-(5-fluoro-1H-indol-1-yl)-2,3-dihydrobenzo[f][1,4]oxazepin-4(5H)-yl)methyl)pyrimidin-2-yl)acetonitrile], for which the IC50 was 0.1 to 0.5 µM.

`COC(=O)c1ccc(CN2CCOc3c(Cl)cc(-n4ccc5cc(F)ccc54)cc3C2)cn1` [II-19, methyl 5-((9-chloro-7-(5-fluoro-1H-indol-1-yl)-2,3-dihydrobenzo[f][1,4]oxazepin-4(5H)-yl)methyl)picolinate]: the IC50 lay in the range of 0.1 to 0.5 µM.

Consider `COCCc1ncc(CN2CCOc3c(Cl)cc(-n4ccc5cc(F)ccc54)cc3C2)cn1` [II-20, 9-chloro-7-(5-fluoro-1H-indol-1-yl)-4-((2-(2-methoxyethyl)pyrimidin-5-yl)methyl)-2,3,4,5-tetrahydrobenzo[f][1,4]oxazepine], for which the IC50 lay within 0.5 to 1 µM.
